Some test systems named below: SNB-78 CNS; U251 CNS; HCT-116 colon; SK-MEL-28 melanoma; CCRF-CEM leukemia; LOX IMVI melanoma; NCI-H460 lung; M19-MEL melanoma; UACC-62 melanoma; OVCAR-8 ovarian.
Holding throughout (assay): DTP human tumour cell line panel, 48 h

One may read the TGI as the concentration at which net growth stops. A high value points to lower sensitivity of the cells. As usually defined, the GI50 is the concentration that inhibits growth by half.

Where “and” joins values, the source holds several entries; their conditions need not be identical. Identical values can stand only once.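 Grown in 96-well plates, cells were treated for 48 hours with each compound at five concentrations. Insufficient inhibition: endpoint recorded as highest concentration tested. GI50 = concentration required for 50% inhibition of growth. TGI is the concentration that stops growth completely.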

`COC(=O)C1=C(c2ccc3c(c2)OCO3)OC(c2ccc3c(c2)OCO3)C1` (stereo unspecified): the TGI with SNB-78 CNS, with U251 CNS, in the assay on HCT-116 colon, in the assay on SK-MEL-28 melanoma, with CCRF-CEM leukemia and in the assay with LOX IMVI melanoma was over 100 µM each time. Further, the TGI in the assay on NCI-H460 lung, in the assay with M19-MEL melanoma, in the assay on UACC-62 melanoma and in the assay on OVCAR-8 ovarian was over 100 µM throughout.
On to `Brc1ccccc1C=NC12CC3CC(CC(C3)C1)C2`, for which the TGI in the assay on SNB-78 CNS, in the assay with U251 CNS, in the assay on HCT-116 colon, in the assay with SK-MEL-28 melanoma, with CCRF-CEM leukemia and with LOX IMVI melanoma was over 100 µM each time. Also, the TGI in the assay on NCI-H460 lung, in the assay with M19-MEL melanoma, in the assay with UACC-62 melanoma and in the assay on OVCAR-8 ovarian was over 100 µM throughout.
With `CN(C)C1=NC2=S(SC(Nc3ccccc3)=N2)S1` (stereo unspecified), the TGI with SNB-78 CNS was over 100 µM; in the assay on U251 CNS it was over 100 µM; with HCT-116 colon, over 100 µM; in the assay on SK-MEL-28 melanoma, 56.2 µM; in the assay with CCRF-CEM leukemia it was over 100 µM; with LOX IMVI melanoma, over 100 µM. Besides, the concentration for total growth inhibition (TGI) in the assay on NCI-H460 lung, in the assay with M19-MEL melanoma, in the assay with UACC-62 melanoma and in the assay on OVCAR-8 ovarian was over 100 µM each time.
Consider `CCOC(=O)NC(=O)c1cn(CCCOC(=O)NCCCCCCNC(=O)OCCCn2cc(C(=O)NC(=O)OCC)c(=O)[nH]c2=O)c(=O)[nH]c1=O`, for which the TGI with SNB-78 CNS is over 100 µM; in the assay with U251 CNS, 33.6 µM; in the assay on HCT-116 colon, over 100 µM; in the assay on SK-MEL-28 melanoma, 88.9 µM; with CCRF-CEM leukemia it was over 100 µM; with LOX IMVI melanoma it was over 100 µM. Moreover, the TGI is over 100 µM in the assay on NCI-H460 lung, over 100 µM in the assay on M19-MEL melanoma, 38.8 µM in the assay on UACC-62 melanoma and over 100 µM in the assay with OVCAR-8 ovarian.
In the case of `CCOC(=O)C(=O)Nc1c(C)cccc1C(C)C`, the TGI in the assay with SNB-78 CNS, with U251 CNS, with HCT-116 colon, in the assay with SK-MEL-28 melanoma, with CCRF-CEM leukemia and in the assay with NCI-H460 lung was over 100 µM throughout. For the same molecule, the TGI in the assay with M19-MEL melanoma, in the assay on UACC-62 melanoma and in the assay with OVCAR-8 ovarian was over 100 µM in each case.
Regarding `COc1ccc(C(=O)CC(=O)C(=O)Nc2ccc(C)c(C)c2)cc1`, the TGI is over 100 µM with SNB-78 CNS; over 100 µM in the assay with U251 CNS; over 64.4 µM with HCT-116 colon; over 100 µM in the assay with SK-MEL-28 melanoma; over 74.5 µM with CCRF-CEM leukemia; over 55.7 µM in the assay on LOX IMVI melanoma. The TGI was over 56.8 µM with NCI-H460 lung, over 100 µM in the assay with M19-MEL melanoma, over 100 µM with UACC-62 melanoma and over 100 µM with OVCAR-8 ovarian.
On to `COC1=C2C[C@@H](C)C[C@@H](OC)[C@@H](O)[C@H](C)/C=C(\C)[C@@H](OC(N)=O)[C@H](OC)/C=C\C=C(/C)C(=O)NC(=CC1=O)C2=O`, for which the GI50 with SNB-78 CNS was 0.859 µM; in the assay with LOX IMVI melanoma, 0.0208 µM and 0.051 µM and 0.0459 µM. Besides, the TGI with SNB-78 CNS was 11.7 µM and 7.42 µM; with U251 CNS it was 6.51 µM and 19.4 µM and 4.2 µM; with HCT-116 colon, 3.95 µM and 5.44 µM and 1.88 µM; in the assay with CCRF-CEM leukemia, 1.07 µM and 7.4 µM and 4.95 µM; with LOX IMVI melanoma it was 1.48 µM and 1.38 µM.
In the case of `COC(=O)CS(=O)c1ccccc1` (stereo unspecified), the TGI with SNB-78 CNS is over 100 µM; with U251 CNS it was 98.6 µM; in the assay with HCT-116 colon, over 100 µM; with SK-MEL-28 melanoma, over 100 µM; with CCRF-CEM leukemia, 63.2 µM; in the assay with LOX IMVI melanoma, 44.4 µM. Besides, the TGI with NCI-H460 lung is over 100 µM; with M19-MEL melanoma it was over 100 µM; in the assay with UACC-62 melanoma it was over 100 µM; in the assay on OVCAR-8 ovarian, 87.9 µM.
For `CCC[CH2][Sn]1([CH2]CCC)[O]CC(CN2CCOCC2)[O]1` (stereo unspecified), the GI50 was 2.12 µM in the assay on SNB-78 CNS; 3.05 µM in the assay with U251 CNS; 8.84 µM with HCT-116 colon; 2.89 µM with SK-MEL-28 melanoma; 0.995 µM in the assay on CCRF-CEM leukemia; 2.02 µM with LOX IMVI melanoma. Further, the GI50 is 13.6 µM in the assay with NCI-H460 lung, 3.99 µM with M19-MEL melanoma, 1.79 µM in the assay with UACC-62 melanoma and 3.35 µM in the assay with OVCAR-8 ovarian. The TGI in the assay with SNB-78 CNS worked out at 6.36 µM; in the assay on U251 CNS, 11 µM; with HCT-116 colon, 21 µM; in the assay on SK-MEL-28 melanoma it was 11.3 µM; with CCRF-CEM leukemia it was 4.84 µM; in the assay on LOX IMVI melanoma it was 5.7 µM. Besides, the TGI turned out to be 26.5 µM in the assay on NCI-H460 lung, 17.3 µM in the assay with M19-MEL melanoma, 4.55 µM in the assay on UACC-62 melanoma and 10.8 µM in the assay on OVCAR-8 ovarian.
Turning to `O=C(O)c1cccc2cccc(C(=O)O)c12.[Hg]`, the GI50 in the assay on U251 CNS was 12.2 µM; in the assay on HCT-116 colon, 15.9 µM; in the assay with SK-MEL-28 melanoma, 14.9 µM; with CCRF-CEM leukemia, 6.92 µM; in the assay with LOX IMVI melanoma, 14.7 µM; in the assay on NCI-H460 lung it was 16.4 µM. Further, the figures for the GI50 in the assay with M19-MEL melanoma, in the assay with UACC-62 melanoma and with OVCAR-8 ovarian were 10.4 µM, over 100 µM and 20.5 µM, respectively. Further, the TGI in the assay on U251 CNS turned out to be 26.8 µM; in the assay with HCT-116 colon it was 29.3 µM; with SK-MEL-28 melanoma, 29.3 µM; in the assay on CCRF-CEM leukemia, 29.2 µM; with LOX IMVI melanoma, 27.9 µM; in the assay on NCI-H460 lung, 31.7 µM. Besides, the TGI with M19-MEL melanoma was 23.3 µM; with UACC-62 melanoma, over 100 µM; with OVCAR-8 ovarian, 46.2 µM.
Turning to `COc1cc(Nc2nc3cc(C(F)(F)F)ccc3nc2-c2ccccc2)cc(OC)c1OC`, the TGI with SNB-78 CNS, in the assay on U251 CNS, with SK-MEL-28 melanoma, with CCRF-CEM leukemia, in the assay with LOX IMVI melanoma and in the assay with NCI-H460 lung was over 100 µM each time. Moreover, the TGI with UACC-62 melanoma and in the assay with OVCAR-8 ovarian was over 100 µM throughout.
Turning to `COc1ccc(NC(=O)CC(=O)N2N=C(N(CCC#N)c3cccc(C)c3)CC2c2ccccc2)cc1` (stereo unspecified), the TGI in the assay with SNB-78 CNS, with U251 CNS, with HCT-116 colon, in the assay with SK-MEL-28 melanoma, in the assay with CCRF-CEM leukemia and in the assay with NCI-H460 lung was over 100 µM in each case. Further, the TGI in the assay on M19-MEL melanoma, with UACC-62 melanoma and in the assay on OVCAR-8 ovarian was over 100 µM each time.

For the origin of these results see PubChem BioAssay (NCI).
